Source: ChEMBL document CHEMBL1133677, “Carbonic anhydrase and matrix metalloproteinase inhibitors: sulfonylated amino acid hydroxamates with MMP inhibitory properties act as efficient inhibitors of CA isozymes I, II, and IV, and N-hydroxysulfonamides inhibit both these zinc enzymes” (J Med Chem, 2000)

Experiments:
Carbonic anhydrase 2 = Carbonic anhydrase 2 (Homo sapiens, UniProt P00918)
Carbonic anhydrase 1 = Carbonic anhydrase 1 (Homo sapiens, UniProt P00915)
Carbonic anhydrase 4 = target: T1, Carbonic anhydrase 4 (Bos taurus, UniProt Q95323)
T1 sequence (Q95323 whole entry): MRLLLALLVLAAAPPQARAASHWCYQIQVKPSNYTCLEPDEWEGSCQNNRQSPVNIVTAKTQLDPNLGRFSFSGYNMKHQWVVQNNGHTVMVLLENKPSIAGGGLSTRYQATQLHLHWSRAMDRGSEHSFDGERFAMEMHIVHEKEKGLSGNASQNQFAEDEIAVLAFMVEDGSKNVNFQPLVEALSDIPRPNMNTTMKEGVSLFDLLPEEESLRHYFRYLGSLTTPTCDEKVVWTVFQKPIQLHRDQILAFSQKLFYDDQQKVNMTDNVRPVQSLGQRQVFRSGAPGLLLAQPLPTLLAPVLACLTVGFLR

Sequence of Carbonic anhydrase 1 (P00915 whole entry): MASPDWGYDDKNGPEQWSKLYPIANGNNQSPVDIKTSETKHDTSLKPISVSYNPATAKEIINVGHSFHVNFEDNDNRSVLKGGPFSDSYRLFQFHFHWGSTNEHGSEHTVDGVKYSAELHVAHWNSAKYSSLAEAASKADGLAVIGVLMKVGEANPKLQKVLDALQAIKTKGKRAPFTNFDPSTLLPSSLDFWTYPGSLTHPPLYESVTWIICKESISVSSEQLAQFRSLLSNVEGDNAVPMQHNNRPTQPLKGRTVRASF

Row | SMILES | Ki (Carbonic anhydrase 2) [nM] | Ki (Carbonic anhydrase 1) [nM] | Ki (Carbonic anhydrase 4) [nM]
1 | CC(C)CC(NS(=O)(=O)c1c(F)c(F)c(F)c(F)c1F)C(=O)NO (centres undefined) | 11 | 10 | 19
2 | O=S(=O)(NO)c1ccc(I)cc1 | 13 | 15000 | 45
3 | O=[N+]([O-])c1ccccc1S(=O)(=O)NO | 5 | 15000 | 13
4 | Cc1ccc(S(=O)(=O)NO)cc1 | 70 | 51000 | 127
5 | O=[N+]([O-])c1cccc(S(=O)(=O)NO)c1 | 5 | 17000 | 24
6 | O=[N+]([O-])c1ccc(S(=O)(=O)NO)cc1 | 9 | 57000 | 70
7 | COc1ccc(S(=O)(=O)NC(C(=O)NO)C(C)C)cc1 (centres undefined) | 39 | 33 | 38
8 | O=S(=O)(NO)C(F)(F)C(F)(F)C(F)(F)C(F)(F)C(F)(F)C(F)(F)C(F)(F)C(F)(F)F | 9 | 1600 | 21
9 | COc1ccc(S(=O)(=O)N(CC(=O)NO)Cc2ccccc2[N+](=O)[O-])cc1 | 170 | > 200 | 140
10 | O=C(CN(Cc1ccccc1[N+](=O)[O-])S(=O)(=O)c1c(F)c(F)c(F)c(F)c1F)NO | 74 | 127 | 49
11 | CC(C(=O)NO)N(Cc1ccccc1Cl)S(=O)(=O)C(F)(F)C(F)(F)C(F)(F)C(F)(F)F (centres undefined) | > 200 | > 200 | > 200
12 | CC(C(=O)NO)N(Cc1ccc([N+](=O)[O-])cc1)S(=O)(=O)C(F)(F)C(F)(F)C(F)(F)C(F)(F)F (centres undefined) | > 200 | > 200 | > 200
13 | COc1ccc(S(=O)(=O)NO)cc1 | 51 | 68000 | 110
14 | O=S(=O)(NO)c1c(F)c(F)c(F)c(F)c1F | 0.8 | 30000 | 13
15 | COc1ccc(S(=O)(=O)NO)cc1N | 44 | 41000 | 136
16 | CC(C(=O)NO)N(Cc1ccccc1)S(=O)(=O)C(F)(F)C(F)(F)C(F)(F)C(F)(F)F (centres undefined) | 92 | 121 | 107
17 | Cc1cc(C)c(S(=O)(=O)NO)c(C)c1 | 62 | 72000 | 156
18 | Nc1ccc(S(=O)(=O)NO)cc1 | 37 | 62000 | 55
19 | O=C(CNS(=O)(=O)c1c(F)c(F)c(F)c(F)c1F)NO | 8 | 7 | 10
20 | CC(=O)Nc1ccc(S(=O)(=O)NO)cc1 | 29 | 40000 | 40
21 | COc1ccc(S(=O)(=O)NC(CC(C)C)C(=O)NO)cc1 (centres undefined) | 5 | 50 | 39

Row | SMILES | Ki (Carbonic anhydrase 2) [nM] | Ki (Carbonic anhydrase 1) [nM] | Ki (Carbonic anhydrase 4) [nM]
22 | O=S(=O)(NO)c1ccc(Br)cc1 | 18 | 38000 | 39
23 | CC(C)CC(NS(=O)(=O)C(F)(F)C(F)(F)C(F)(F)C(F)(F)F)C(=O)NO (centres undefined) | 18 |  | 30
24 | CC(C(=O)NO)N(Cc1ccccc1)S(=O)(=O)c1c(F)c(F)c(F)c(F)c1F (centres undefined) | 38 | 84 | 43
25 | CC(C(=O)NO)N(Cc1ccc([N+](=O)[O-])cc1)S(=O)(=O)c1c(F)c(F)c(F)c(F)c1F (centres undefined) | > 200 | > 200 | > 200
26 | O=S(=O)(NO)C(Cl)(Cl)Cl | 150 | 23000 | 210
27 | O=C(CN(Cc1ccccc1)S(=O)(=O)c1c(F)c(F)c(F)c(F)c1F)NO | 36 | 90 | 42
28 | O=C(CN(Cc1ccc([N+](=O)[O-])cc1)S(=O)(=O)c1c(F)c(F)c(F)c(F)c1F)NO | 107 | 150 | 130
29 | O=S(=O)(NO)c1ccc(Cl)cc1 | 21 | 27000 | 120
30 | CC(C(=O)NO)N(Cc1ccccc1[N+](=O)[O-])S(=O)(=O)C(F)(F)C(F)(F)C(F)(F)C(F)(F)F (centres undefined) | > 200 | > 200 | > 200
31 | CC(C(=O)NO)N(Cc1ccccc1[N+](=O)[O-])S(=O)(=O)c1c(F)c(F)c(F)c(F)c1F (centres undefined) | 160 | > 200 | > 200
32 | COc1ccc(S(=O)(=O)N(Cc2ccccc2)C(C(=O)NO)C(C)C)cc1 (centres undefined) | > 200 | > 200 | 185
33 | COc1ccc(S(=O)(=O)N(Cc2ccccc2)C(C)C(=O)NO)cc1 (centres undefined) | 120 | 195 | 136
34 | CC(C)C(C(=O)NO)N(Cc1ccccc1)S(=O)(=O)C(F)(F)C(F)(F)C(F)(F)C(F)(F)F (centres undefined) | 108 | 140 | 124
35 | CN(C)S(=O)(=O)NO | 40 | 12000 | 290
36 | O=[N+]([O-])c1ccc(S(=O)(=O)NO)cc1Cl | 4 | 17000 | 12
37 | O=S(=O)(NO)C(F)(F)F | 30 | 20000 | 16
38 | CC(C)CC(C(=O)NO)N(Cc1ccccc1)S(=O)(=O)C(F)(F)C(F)(F)C(F)(F)C(F)(F)F (centres undefined) | 116 | 180 | 139
39 | COc1ccc(S(=O)(=O)N(Cc2ccccc2)C(CC(C)C)C(=O)NO)cc1 (centres undefined) | > 200 | > 200 | 190
40 | CC(NS(=O)(=O)c1c(F)c(F)c(F)c(F)c1F)C(=O)NO (centres undefined) | 8 | 7 | 10
41 | COc1ccc(S(=O)(=O)N(Cc2ccc([N+](=O)[O-])cc2)C(C)C(=O)NO)cc1 (centres undefined) | > 200 | > 200 | > 200
42 | O=S(=O)(NO)c1ccc(F)cc1 | 19 | 15000 | 90

Row | SMILES | Ki (Carbonic anhydrase 2) [nM] | Ki (Carbonic anhydrase 1) [nM] | Ki (Carbonic anhydrase 4) [nM]
43 | O=S(=O)(NO)c1cccc(C(F)(F)F)c1 | 1.1 | 33000 | 16
44 | CC(C)C(NS(=O)(=O)c1c(F)c(F)c(F)c(F)c1F)C(=O)NO (centres undefined) | 11 | 8 | 13
45 | CC(NS(=O)(=O)C(F)(F)C(F)(F)C(F)(F)C(F)(F)F)C(=O)NO (centres undefined) | 16 | 21 | 17
46 | O=S(=O)(NO)C(F)(F)C(F)(F)C(F)(F)C(F)(F)F | 15 | 1800 | 27
47 | CC(C)C(C(=O)NO)N(Cc1ccccc1)S(=O)(=O)c1c(F)c(F)c(F)c(F)c1F (centres undefined) | 45 | 88 | 48
48 | O=C(CNS(=O)(=O)C(F)(F)C(F)(F)C(F)(F)C(F)(F)F)NO | 15 | 18 | 16
49 | O=S(=O)(Cc1ccccc1)NO | 190 | 19000 | 460
50 | CC(C)C(NS(=O)(=O)C(F)(F)C(F)(F)C(F)(F)C(F)(F)F)C(=O)NO (centres undefined) | 15 | 29 | 20
51 | O=C(O)c1ccccc1S(=O)(=O)NO | 0.9 | 25000 | 12
52 | COc1ccc(S(=O)(=O)NC(C)C(=O)NO)cc1 (centres undefined) | 35 | 32 | 30
53 | CC(C)CC(C(=O)NO)N(Cc1ccccc1)S(=O)(=O)c1c(F)c(F)c(F)c(F)c1F (centres undefined) | 56 | 100 | 75
54 | CC(C(=O)NO)N(Cc1ccccc1Cl)S(=O)(=O)c1c(F)c(F)c(F)c(F)c1F (centres undefined) | > 200 | > 200 | > 200
55 | COc1ccc(S(=O)(=O)N(Cc2ccccc2Cl)C(C)C(=O)NO)cc1 (centres undefined) | > 200 | > 200 | > 200
56 | O=C(CN(Cc1ccccc1)S(=O)(=O)C(F)(F)C(F)(F)C(F)(F)C(F)(F)F)NO | 85 | 105 | 100
57 | COc1ccc(S(=O)(=O)N(Cc2ccccc2[N+](=O)[O-])C(C)C(=O)NO)cc1 (centres undefined) | > 200 | > 200 | > 200
58 | O=C(CN(Cc1ccc([N+](=O)[O-])cc1)S(=O)(=O)C(F)(F)C(F)(F)C(F)(F)C(F)(F)F)NO | 118 | > 200 | 136
59 | O=S(=O)(NO)c1ccccc1 | 26 | 18000 | 74
60 | COc1ccc(S(=O)(=O)N(CC(=O)NO)Cc2ccccc2)cc1 | 120 | > 200 | 145
61 | COc1ccc(S(=O)(=O)NCC(=O)NO)cc1 | 32 | 30 | 29
62 | CS(=O)(=O)NO | 4.7 |  | 56
